In US10030016B2 (Sunesis Pharmaceuticals, Inc., priority 2009, dated 2018):
Where a name gives a salt, the structure may show the parent alone. Read-outs that look alike come from different tables or passages of the source.

How the values were obtained:
[1] = system: phospho-akt (Thr308) in PC-3 cells; assay: Inhibition of phospho-akt (Thr308) in PC-3 cells, MSD phospho-akt 308 ELISA kit; format: cell-based; details: 2 hours, no serum, read-out: EC50
In short: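 Read-out is MSD electrochemiluminescence of Akt phosphorylated at Thr308 in lysates of PC-3 cells treated 2 h with compound in serum-free medium. Wortmannin at 5 μM defined the low control and DMSO the high control.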

PDK1 = PDK1 (Homo sapiens (Human), UniProt O15530); assay: PDK1 kinase assay (coupled PDK1/AKT/FAM-crosstide assay, IMAP fluorescence polarization); format: biochemical
Sequence of PDK1 (O15530 51-359): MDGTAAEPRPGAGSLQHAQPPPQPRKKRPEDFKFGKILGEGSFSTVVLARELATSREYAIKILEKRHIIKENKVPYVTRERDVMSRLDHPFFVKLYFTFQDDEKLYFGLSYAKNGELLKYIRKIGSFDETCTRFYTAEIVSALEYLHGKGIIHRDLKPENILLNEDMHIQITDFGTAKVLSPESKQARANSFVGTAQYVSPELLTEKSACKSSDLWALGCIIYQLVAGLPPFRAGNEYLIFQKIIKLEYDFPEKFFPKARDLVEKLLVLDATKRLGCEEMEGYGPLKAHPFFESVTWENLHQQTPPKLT
In short: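 PDK1 activity is measured indirectly through activation of a PIFtide-fused AKT2 construct that phosphorylates FAM-crosstide (100 nM). The reaction uses 0.75 nM PDK1, 40 μM ATP, 30 min, 25° C, with IMAP polarization detection.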

[2] = Homo sapiens, inhibition of P308 Akt in PC-3 cells, MSD
[3] = inhibition of phospo-PDK1 in vitro
[4] = Homo sapiens, inhibition of P308 Akt in PC-3 cells using MSD

EC50 [1, 2] | IC50 (PDK1; [3]) | EC50 [1, 4] | IC50 (PDK1; inhibition of PDK1 in vitro) | EC50 ([1]; inhibition of P308 Akt in PC-3 cells using MSD) | Compound
> 10000 nM | > 5000 nM | – | – | – | C[C@H](NC(=O)c1cccnc1NCc1ccc(-c2cn(C)c(=O)c3ccccc23)s1)c1ccc(F)cc1 [Example 2.10, (S)-N-(1-(4-fluorophenyl)ethyl)-2-(((5-(2-methyl-1-oxo-1,2-di-hydroisoquinolin-4-yl)thiophen-2-yl)methyl)amino)nicotinamide]
> 10000 nM | > 5000 nM | – | – | – | CCCNS(=O)(=O)c1cnc(NCc2ccc(-c3ccc4ncnc(N)c4c3)s2)c(C(=O)NC)c1 [Example 8.6.11, 2-(((5-(4-aminoquinazolin-6-yl)thiophen-2-yl)methyl)amino)-N-methyl-5-(N-propylsulfamoyl) nicotinamide]
1000 to 10000 nM | < 100 nM | – | – | – | C[C@H](NC(=O)c1cn(C)nc1NCc1ccc(-c2ccc3ncnc(N)c3c2)s1)c1ccc(F)c(F)c1 [Example 11.4, (S)-3-(((5-(4-aminoquinazolin-6-yl)thiophen-2-yl)methyl)amino)-N-(1-(3,4-difluorophenyl)ethyl) 1-methyl-1H-pyrazole-4-carboxamide]
– | – | 1000 to 10000 nM | < 100 nM | – | C[C@H](NC(=O)c1nc(C#N)cnc1NCc1ccc(-c2cnc(N)c(O[C@@H]3CCC[C@H]3N)n2)cc1)c1ccc(F)c(F)c1 [Example 172, 3-{4-[5-Amino-6-((1R,2R)-2-amino-cyclopentyloxy)-pyrazin-2-yl]-benzylamino}-6-cyano-pyrazine-2-carboxylic acid [(S)-1-(3,4-difluoro-phenyl)-ethyl]-amide]
< 1000 nM | < 100 nM | – | – | – | Cc1nc(/C=C2\C(=O)Nc3cc(/C=C/CNc4ncccc4C(=O)NCc4ccc(F)c(F)c4)ccc32)c[nH]1 [Example 15.8, N-(3,4-Difluoro-benzyl)-2-((E)-3-{3-[1-(2-methyl-1H-imidazol-4-yl)-meth-(Z)-ylidene]-2-oxo-2,3-dihydro-1H-indol-6-yl}-allylamino)-nicotinamide]
– | – | < 1000 nM | < 100 nM | – | C[C@H](NC(=O)c1cc(C#N)cnc1NCc1ccc(-c2cnc(N)c(C3=CCNCC3)n2)cc1)c1ccc(F)cc1 [Example 233, 2-{4-[5-Amino-6-(1,2,3,6-tetrahydro-pyridin-4-yl)-pyrazin-2-yl]-benzylamino}-5-cyano-N-[(S)-1-(4-fluoro-phenyl)-ethyl]-nicotinamide]
1000 to 10000 nM | < 100 nM | – | – | – | C[C@H](NC(=O)c1cccnc1NCc1ccc(-c2ccc3ncnc(N)c3c2)s1)c1cccc(F)c1 [Example 3.21, 2-({[5-(4-aminoquinazolin-6-yl)thiophen-2-yl]methyl}amino)-N-[(1S)-1-(3-fluorophenyl)ethyl]pyridine-3-carboxamide (TFA salt)]
– | – | – | < 100 nM | 1000 to 10000 nM | C[C@H](NC(=O)c1cc(C#N)cnc1NCc1ccc(-c2c[nH]c3ncnc(N)c23)c(F)c1)c1ccc(F)cc1 [Example 100, (S)-2-(4-(4-amino-7H-pyrrolo[2,3-d]pyrimidin-5-yl)-3-fluorobenzylamino)-5-cyano-N-(1-(4-fluorophenyl)ethyl) nicotinamide]
– | – | < 1000 nM | < 100 nM | – | C[C@H](NC(=O)c1cc(C#N)cnc1NCc1ccc(-c2ccn3ncnc(N)c23)cc1)c1ccc(F)cc1 [Example 174, 2-[4-(4-Amino-pyrrolo[2,1-f][1,2,4]triazin-5-yl)-benzylamino]-5-cyano-N-[(S)-1-(4-fluoro-phenyl)-ethyl]-nicotinamide]
– | – | < 1000 nM | < 100 nM | – | C[C@H](NC(=O)c1cc(C#N)cnc1NCc1ccc(-c2cnc(N)c(-c3cccc(N)c3)n2)cc1)c1ccc(F)cc1 [Example 237, 2-{4-[5-Amino-6-(3-amino-phenyl)-pyrazin-2-yl]-benzylamino}-5-cyano-N-[(S)-1-(4-fluoro-phenyl)-ethyl]-nicotinamide]
– | – | < 1000 nM | < 100 nM | – | C[C@H](NC(=O)c1cc(C#N)cnc1NCc1ccc(-c2cnc(N)c(CC3CCNC3)n2)cc1)c1ccc(F)cc1 (stereo partly drawn) [Example 185, 2-[4-(5-Amino-6-pyrrolidin-3-ylmethyl-pyrazin-2-yl)-benzylamino]-5-cyano-N-[(S)-1-(4-fluoro-phenyl)-ethyl]-nicotinamide]
– | – | < 1000 nM | < 100 nM | – | C[C@H](NC(=O)c1cc(C#N)cnc1NCc1ccc(-c2cnc(N)c(CCCN3CCOCC3)n2)cc1)c1ccc(F)cc1 [Example 88, 2-{4-[5-Amino-6-(3-morpholin-4-yl-propyl)-pyrazin-2-yl]-benzyl-amino}-5-cyano-N-[(S)-1-(4-fluoro-phenyl)-ethyl]-nicotinamide]
1000 to 10000 nM | < 100 nM | – | – | – | Cc1nc(/C=C2\C(=O)Nc3cc(/C=C/CNc4ncccc4C(=O)NCc4ccc(F)c(F)c4)ccc32)[nH]c1C [Example 15.13, N-(3,4-Difluoro-benzyl)-2-((E)-3-{3-[1-(4,5-dimethyl-1H-imidazol-2-yl)-meth-(Z)-ylidene]-2-oxo-2,3-dihydro-1H-indol-6-yl}-allylamino)-nicotinamide]
1000 to 10000 nM | < 100 nM | – | – | – | Nc1ncnc2ccc(-c3ccc(CNc4ncccc4C(=O)NCc4ccc(F)cc4F)s3)cc12 [Example 3.8, 2-({[5-(4-aminoquinazolin-6-yl)thiophen-2-yl]methyl}amino)-N-(2,4-difluorobenzyl)pyridine-3-carboxamide (TFA salt)]
– | – | 1000 to 10000 nM | < 100 nM | – | C[C@H](NC(=O)c1nc(C#N)cnc1NCc1ccc(-c2cnc(NCCO)cn2)cc1)c1ccc(F)c(F)c1 [Example 230, 6-Cyano-3-{4-[5-(2-hydroxy-ethylamino)-pyrazin-2-yl]-benzylamino}-pyrazine-2-carboxylic acid [(S)-1-(3,4-difluoro-phenyl)-ethyl]-amide]
1000 to 10000 nM | < 100 nM | – | – | – | O=C(NCc1ccc(F)c(F)c1)c1cccnc1NCc1cccc(-c2c[nH]c3ncccc23)c1 [Example 1.5, 2-(3-(1H-pyrrolo[2,3-b]pyridin-3-yl)benzylamino)-N-(3,4-difluorobenzyl)nicotinamide]
> 10000 nM | 100 to 1000 nM | – | – | – | CC[C@H](NC(=O)c1cccnc1NCc1ccc(-c2ccc3ncnc(N)c3c2)s1)c1cccc(F)c1 [Example 3.42, (S)-2-((5-(4-aminoquinazolin-6-yl)thiophen-2-yl)methylamino)-N-(1-(3-fluorophenyl)propyl) nicotinamide (TFA salt)]
– | – | < 1000 nM | < 100 nM | – | Nc1cnc(-c2ccc(CNc3ncc(C(F)(F)F)cc3C(=O)Nc3ccc(F)cc3)cc2)cn1 [Example 155, 2-(4-(5-aminopyrazin-2-yl)benzylamino)-N-(4-fluorophenyl)-5-(trifluoromethyl)nicotinamide]
– | – | < 1000 nM | < 100 nM | – | C[C@H](NC(=O)c1cc(C#N)cnc1NCc1ccc(-c2cnc(N)cn2)cc1)c1ccc(F)cc1 [Example 120, (S)-2-(4-(5-amino-pyrazin-2-yl)benzylamino)-5-cyano-N-(1-(4-fluorophenyl)ethyl) nicotinamide]
– | – | < 1000 nM | < 100 nM | – | CNCCCc1nc(-c2ccc(CNc3ncc(C#N)cc3C(=O)N[C@@H](C)c3ccc(F)cc3)cc2)cnc1N [Example 93, 2-{4-[5-Amino-6-(3-methylamino-propyl)-pyrazin-2-yl]-benzyl-amino}-5-cyano-N-[(S)-1-(4-fluoro-phenyl)-ethyl]-nicotinamide]
